From patent US20140221378A1, “SUBSTITUTED SPIROPYRIDO[1,2-a]PYRAZINE DERIVATIVE AND PHARMACEUTICAL USE OF SAME AS HIV INTEGRASE INHIBITOR” (priority 2012, published 2014)
Where a name gives a salt, the structure may show the parent alone. Read-outs that look alike come from different tables or passages of the source.

Tested on: HIV-1 NL4-3 strain
Test: Antiviral activity in acute infection system of MT-4 cell with HIV-1 NL4-3 strain (Cell Titer-Glo)
Format: cell-based
[1] = antiviral activity, MT-4 cells infected with HIV-1 NL4-3 strain, MOI 0.05, 5 days culture, Cell Titer-Glo luminescence, read-out: EC50

## CCN1C[C@@]2(C[C@@H]2COC)n2cc(C(=O)NCc3cccc(C(F)(F)F)c3F)c(=O)c(O)c2C1=O [Example T27, (1S, 2S)-2′-ethyl-N-(2-fluoro-3-(trifluoromethyl)benzyl)-9′-hydroxy-2-(methoxymethyl)-1′,8′-dioxo-1′,2′,3′,8′-tetrahydrospiro[cyclopropane-1,4′-pyrido[1,2-a]pyrazine]-7′-carboxamide]
Human immunodeficiency virus 1, NL43, MT4, antiviral activity, MT-4 cells acutely infected with HIV-1 NL4-3 strain (wild type), Cell Titer-Glo, read-out: EC50
  EC50: 97 nM

## N-(3-chloro-2-fluorobenzyl)- 2′-ethyl-9′-hydroxy-trans-3- (hydroxymethyl)-1′,8′-dioxo- 1′,2′,4′,8′- tetrahydrospiro[cyclobutane- 1,3′-pyrido[1,2-a]pyrazine]- 7′-carboxamide hydrochloride [Example S58]
[1]
  EC50: 6.8 nM

## CO[C@H]1C[C@]2(CN(C)C(=O)c3c(O)c(=O)c(C(=O)NCc4cccc(Cl)c4F)cn32)C1 [Example 1, N-(3-chloro-2-fluorobenzyl)-9′-hydroxy-cis-3-methoxy-2′-methyl-1′,8′-dioxo-1′,2′,3′,8′-tetrahydrospiro[cyclobutane-1,4′-pyrido[1,2-a]pyrazine]-7′-carboxamide hydrochloride]
Human immunodeficiency virus 1, NL43, MT4, 120 h, antiviral activity, MT-4 cells infected with HIV-1 NL4-3 strain, MOI 0.05, 5 days culture, Cell Titer-Glo luminescence
  EC50: 3.1 nM

## CO[C@H]1C[C@]2(Cn3cc(C(=O)NCc4cccc(Cl)c4F)c(=O)c(O)c3C(=O)N2C)C1 [Example S63, N-(3-chloro-2-fluorobenzyl)-9′-hydroxy-cis-3-methoxy-2′-methyl-1′,8′-dioxo-1′,2′,4′,8′-tetrahydrospiro[cyclobutane-1,3′-pyrido[1,2-a]pyrazine]-7′-carboxamide hydrochloride]
Human immunodeficiency virus 1, NL43, MT4, 120 h, antiviral activity, MT-4 cells infected with HIV-1 NL4-3 strain, MOI 0.05, 5 days culture, Cell Titer-Glo luminescence, read-out: EC50
  EC50: 4 nM

## cis-3-(benzyloxy)-N-(2,4- difluorobenzyl)-9′-hydroxy- 2′-isopropyl-1′,8′-dioxo- 1′,2′,3′,8′- tetrahydrospiro[cyclobutane- 1,4′-pyrido[1,2-a]pyrazine]- 7′-carboxamide hydrochloride [Example S2]
[1]
  EC50: 10 nM
